# Measurements published in patent US20260130933A1, “PHARMACEUTICAL COMPOSITION FOR PREVENTION OR TREATMENT OF NEPHROPATHY AND/OR DIABETES MELLITUS, COMPRISING ENAVOGLIFLOZIN” (DAEWOONG PHARMACEUTICAL CO., LTD., priority 2022, published 2026).
# Assay: Example 3: phase 3 trial, enavogliflozin 0.3 mg vs dapagliflozin 10 mg once a day for 24 weeks added to metformin and gemigliptin in patients with type 2 diabetes (same endpoints, rescue drug)
# Assay type: in vivo, human
# Procedure: 1) when Metformin (≥1,000 mg/Day) was Administered at a Constant Dose for at Least 8 Weeks Prior to Pre-Visit (Pre-Screening) • Metformin (≥1,000 mg/day) and gemigliptin (50 mg/day) were co-administered during the 8-week stabilization period. […] 4) when Metformin (≥1,000 mg/Day) and Gemigliptin (50 mg/Day) were Co-Administered at Constant Doses for at Least 8 Weeks Prior to Pre-Visit (Prescreening) • Without a separate stabilization period, Pre-visit (pre-screening) was Visit 1 (screening).
# Subjects who met the inclusion/exclusion criteria continued to receive metformin and gemigliptin while receiving a placebo of the clinical trial drug in a single-blind (subject-blinded) state for a 2-week run-in period.
# Here, the randomized subjects were stratified according to the administration therapy (co-administration with two or less agents (one or two agents) or three or more agents) of a conventional hypoglycemic agent (before washout of another hypoglycemic agent) within 24 weeks prior to obtaining written informed consent and by an HbA1c value (<8% or ≥8%) at Visit 1 (screening) measured in the central laboratory.
# The randomized subjects were administered two tablets of the clinical trial drug corresponding to each administration group once a day, and then visited the institution at weeks 6, 12, 18, and 24 during the 24-week administration period to conduct efficacy and safety assessments. In addition, during the clinical trial period, they were instructed to exercise regularly and control their diet without changing their daily life patterns.
# • 1) Change in HbA1c at week 24 after administration of clinical trial drug compared to Visit 2 (randomization)
# • 1) Change in HbA1c at each time point of weeks 6, 12, and 18 after administration of clinical trial drug compared to Visit 2 (randomization) • 2) Change in FPG at each time point of weeks 6, 12, 18, and 24 after administration of clinical trial drug compared to Visit 2 (randomization) • 3) Proportion of subjects achieving HbA1c<7% at each time point of weeks 6, 12, 18, and 24 after administration of clinical trial drug • 4) Proportion of subjects achieving HbA1c<6.5% at each time point of weeks 6, 12, 18, and 24 after administration of clinical trial drug • 5) Proportion of subjects achieving therapeutic response (HbA1c change (HbA1c at Visit 2—HbA1c at each evaluation time point)>0.5% or HbA1c<7% at each evaluation time point compared to Visit 2 (randomization)) at each time point of weeks 6, 12, 18, and 24 after administration of clinical trial drug • 6) Proportion of subjects achieving therapeutic response (HbA1c change (HbA1c at Visit 2—HbA1c at each evaluation time point)>0.7% or HbA1c<7% at each evaluation time point compared to Visit 2 (randomization)) at each time point of weeks 6, 12, 18, and 24 after administration of clinical trial drug • 7) Proportion of subjects achieving therapeutic response (HbA1c change (HbA1c at Visit 2—HbA1c at each evaluation time point)>1% or HbA1c<7% at each evaluation time point compared to Visit 2 (randomization)) at each time point of weeks 6, 12, 18, and 24 after administration of clinical trial drug
# [1] = week 6, modified per-protocol set 1, enavogliflozin 0.3 mg, dapagliflozin 10 mg
# [2] = week 6, modified per-protocol set 2
# [3] = week 6, modified per-protocol set 2, enavogliflozin 0.3 mg, dapagliflozin 10 mg
# [4] = week 6, per-protocol set, enavogliflozin 0.3 mg, dapagliflozin 10 mg
compound,measurement,setting,value
"CCOc1ccc(Cc2cc([C@@H]3O[C@H](CO)[C@@H](O)[C@H](O)[C@H]3O)ccc2Cl)cc1 [Dapagliflozin, reference compound]","HbA1c, Mean (SD)","Baseline, PPS",7.83%
same,"HbA1c, Median","Baseline, PPS",7.64%
same,"HbA1c change from baseline, ANCOVA LS mean (SE)","Week 24, PPS",−0.86 % p
same,"HbA1c change from baseline, Mean (SD)","Week 24, PPS",−0.89 % p
same,"HbA1c change from baseline, Median","Week 24, PPS",−0.86 % p
same,"HbA1c, Mean (SD)","Week 24, PPS",6.94%
same,"HbA1c, Median","Week 24, PPS",6.81%
same,"FPG change from baseline, LS mean (SE)",week 6,−22.71(1.39) mg/dL
same,"HDL-C change from baseline, LS mean (SE)",week 6,1.13(0.56) mg/dL
same,"HOMA-IR change from baseline, LS mean (SE)",week 6,−0.99(0.14)
same,"HOMA-β change from baseline, LS mean (SE)",week 6,3.20(3.04)
same,"HbA1c change from baseline, LS mean (SE)",week 6,−0.70(0.03) % p
same,"LDL-C change from baseline, LS mean (SE)",week 6,1.91(1.78) mg/dL
same,"UACR change from baseline, LS mean (SE)",week 6,−14.85(3.36) g/kg
same,"UGCR change from baseline, LS mean (SE)",week 6,45.75(2.14) mg/mg
same,"adiponectin change from baseline, LS mean (SE)",week 6,0.37(0.33) μg/mL
same,"body weight change from baseline, LS mean (SE)",week 6,−1.80(0.16) kg
same,"diastolic blood pressure change from baseline, LS mean (SE)",week 6,−1.88(0.67) mmHg
same,"fasting C-peptide change from baseline, LS mean (SE)",week 6,−0.04(0.02) ng/mL
same,"leptin change from baseline, LS mean (SE)",week 6,−2.03(0.45) ng/mL
same,"systolic blood pressure change from baseline, LS mean (SE)",week 6,−3.49(0.87) mmHg
same,"total cholesterol change from baseline, LS mean (SE)",week 6,2.63(1.93) mg/dL
same,"triglyceride change from baseline, LS mean (SE)",week 6,−5.39(4.38) mg/dL
same,"Change from baseline in HDL-C, ANCOVA LS mean",[1],1.13 mg/dL
same,"Change from baseline in HDL-C, Mean",[1],0.94 mg/dL
same,"Change from baseline in HDL-C, Median",[1],1.00 mg/dL
same,"Change from baseline in LDL-C, ANCOVA LS mean",[1],1.91 mg/dL
same,"Change from baseline in LDL-C, Mean",[1],1.40 mg/dL
same,"Change from baseline in LDL-C, Median",[1],1.00 mg/dL
same,"Change from baseline in total cholesterol, ANCOVA LS mean",[1],2.63 mg/dL
same,"Change from baseline in total cholesterol, Mean",[1],1.55 mg/dL
same,"Change from baseline in total cholesterol, Median",[1],2.00 mg/dL
same,"Change from baseline in triglycerides, ANCOVA LS mean",[1],-5.39 mg/dL
same,"Change from baseline in triglycerides, Mean",[1],-10.00 mg/dL
same,"Change from baseline in triglycerides, Median",[1],1.00 mg/dL
same,"Fasting HDL-C, Mean",[1],48.39 mg/dL
same,"Fasting HDL-C, Median",[1],48.00 mg/dL
same,"Fasting LDL-C, Mean",[1],78.50 mg/dL
same,"Fasting LDL-C, Median",[1],70.00 mg/dL
same,"Fasting total cholesterol, Mean",[1],145.04 mg/dL
same,"Fasting triglycerides, Mean",[1],121.81 mg/dL
same,"Fasting triglycerides, Median",[1],98.00 mg/dL
same,"fasting Total cholesterol, Median",[1],136.00 mg/dL
same,"Change from baseline in diastolic blood pressure, ANCOVA LS mean",[2],−1.88 mmHg
same,"Change from baseline in diastolic blood pressure, Mean",[2],−1.57 mmHg
same,"Change from baseline in diastolic blood pressure, Median",[2],−2.00 mmHg
same,"Diastolic blood pressure, Mean",[2],72.20 mmHg
same,"Diastolic blood pressure, Median",[2],72.00 mmHg
same,"Change from baseline in systolic blood pressure, ANCOVA LS mean",[3],−3.49 mmHg
same,"Change from baseline in systolic blood pressure, Mean",[3],−3.23 mmHg
same,"Change from baseline in systolic blood pressure, Median",[3],−3.50 mmHg
same,"Systolic blood pressure, Mean",[3],120.64 mmHg
same,"Systolic blood pressure, Median",[3],119.00 mmHg
same,"Adiponectin, Mean","week 6, per-protocol set",6.69 µg/mL
same,"Adiponectin, Median","week 6, per-protocol set",5.80 µg/mL
same,"Change from baseline in HOMA-IR, ANCOVA LS mean","week 6, per-protocol set",−0.99
same,"Change from baseline in HOMA-IR, Mean","week 6, per-protocol set",−0.92
same,"Change from baseline in HOMA-IR, Median","week 6, per-protocol set",−0.72
same,"Change from baseline in HOMA-β, ANCOVA LS mean","week 6, per-protocol set",3.20
same,"Change from baseline in HOMA-β, Mean","week 6, per-protocol set",4.48
same,"Change from baseline in HOMA-β, Median","week 6, per-protocol set",5.30
same,"Change from baseline in UACR, ANCOVA LS mean","week 6, per-protocol set",-14.85 g/kg
same,"Change from baseline in UACR, Mean","week 6, per-protocol set",-7.25 g/kg
same,"Change from baseline in UACR, Median","week 6, per-protocol set",-0.40 g/kg
same,"Change from baseline in UGCR, ANCOVA LS mean","week 6, per-protocol set",45.75 mg/mg
same,"Change from baseline in UGCR, Mean","week 6, per-protocol set",43.58 mg/mg
same,"Change from baseline in UGCR, Median","week 6, per-protocol set",42.62 mg/mg
same,"Change from baseline in adiponectin, ANCOVA LS mean","week 6, per-protocol set",0.37 µg/mL
same,"Change from baseline in adiponectin, Mean","week 6, per-protocol set",0.31 µg/mL
same,"Change from baseline in adiponectin, Median","week 6, per-protocol set",0.34 µg/mL
same,"Change from baseline in leptin, ANCOVA LS mean","week 6, per-protocol set",-2.03 ng/mL
same,"Change from baseline in leptin, Mean","week 6, per-protocol set",-2.04 ng/mL
same,"Change from baseline in leptin, Median","week 6, per-protocol set",-1.26 ng/mL
same,"HOMA-IR (insulin resistance), Mean","week 6, per-protocol set",1.90
same,"HOMA-IR (insulin resistance), Median","week 6, per-protocol set",1.66
same,"HOMA-β (beta-cell function), Mean","week 6, per-protocol set",44.56
same,"HOMA-β (beta-cell function), Median","week 6, per-protocol set",36.75
same,"Leptin, Mean","week 6, per-protocol set",8.78 ng/mL
same,"Leptin, Median","week 6, per-protocol set",7.03 ng/mL
same,"UACR, Mean","week 6, per-protocol set",23.20 g/kg
same,"UACR, Median","week 6, per-protocol set",11.20 g/kg
same,"UGCR, Mean","week 6, per-protocol set",45.12 mg/mg
same,"UGCR, Median","week 6, per-protocol set",43.37 mg/mg
same,"Body weight, Mean",[4],65.20 kg
same,"Change from baseline in FPG, ANCOVA LS mean",[4],-22.71 mg/dL
same,"Change from baseline in FPG, Mean",[4],-22.87 mg/dL
same,"Change from baseline in FPG, Median",[4],-18.50 mg/dL
same,"Change from baseline in HbA1c, ANCOVA LS mean",[4],−0.70 % p
same,"Change from baseline in HbA1c, Mean",[4],−0.72 % p
same,"Change from baseline in HbA1c, Median",[4],−0.65 % p
same,"Change from baseline in body weight, ANCOVA LS mean",[4],-1.80 kg
same,"Change from baseline in body weight, Mean",[4],-1.68 kg
same,"Change from baseline in body weight, Median",[4],-1.55 kg
same,"Change from baseline in fasting C-peptide, ANCOVA LS mean",[4],-0.04 ng/mL
same,"Change from baseline in fasting C-peptide, Mean",[4],-0.04 ng/mL
same,"Change from baseline in fasting C-peptide, Median",[4],-0.03 ng/mL
same,"FPG, Mean",[4],117.64 mg/dL
same,"FPG, Median",[4],116.50 mg/dL
same,"Fasting C-peptide, Mean",[4],0.65 ng/mL
same,"Fasting C-peptide, Median",[4],0.63 ng/mL
same,"HbA1c, Mean",[4],7.10%
